The results in this text go back to PubChem BioAssay (NCI).

Values joined by “and” are separate entries in the source; they are usually repeats but may differ in a detail not shown here. Equal entries are not always repeated.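 All cell lines were grown in 96-well plates and treated with compound for 48 hours. GI50 = concentration required for 50% inhibition of growth. TGI marks complete inhibition of growth.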

What all share (test): growth of human tumour cells (NCI), 48 h
Test [1] concerns CAKI-1 renal.
Test [2] deals with M14 melanoma.
Test [3] relates to NCI-H23 lung.
Test [4] deals with OVCAR-5 ovarian.
For test [5], the system named is SK-MEL-5 melanoma.
For test [6], the system named is SN12C renal.
Test [7] deals with SNB-75 CNS.
The test system of test [8] is SW-620 colon.
Test [9] has as its system UACC-257 melanoma.
The subject of test [10] is UACC-62 melanoma.

For `CN[C@@H]1C[C@H]2O[C@@](C)([C@@H]1OC)n1c3ccccc3c3c4c(c5c6ccccc6n2c5c31)C(=O)N[C@@H]4O`, the TGI was 0.0229 µM in test [1]; 0.3 µM and 1.25 µM in test [2]; 1.53 µM in test [3]; 0.298 µM and 0.24 µM in [4]; 0.766 µM in test [5]; 6.77 µM in test [6]. The TGI in test [7] was 0.0143 µM and 0.0271 µM; in [8], 0.3 µM and 1.88 µM; in test [9] it was 0.3 µM and 1.9 µM; in test [10], 0.908 µM. The GI50 in test [2] was 0.0311 µM; in test [4], 0.0226 µM; in [7], 0.00322 µM; in test [8], 0.147 µM; in test [9], 0.0848 µM.
Consider `O=c1ccc(=O)c2c(=O)c3ccccc3c(=O)c1=2`, for which the TGI in test [1] was over 100 µM; in test [2], over 100 µM; in [3], over 100 µM; in test [4], over 100 µM; in [5], 35.5 µM; in test [6] it was over 100 µM. Also, the TGI in test [7] was over 100 µM; in test [8] it was over 100 µM; in test [9] it was 90.4 µM; in test [10], over 100 µM.
Take `COc1ccc(Cl)cc1Nc1nc(C(F)(F)F)ccc1C(=O)N/N=C/c1cc(OC)c(OC)c(OC)c1`: the GI50 in test [1] was 1.61 µM; in test [2], 1.61 µM; in [3], 5.35 µM; in test [4], 5.59 µM; in test [5], 1.68 µM; in [6] it was 2.09 µM. Moreover, the GI50 in test [7] was 2.19 µM; in test [8], 2.79 µM; in test [9], 1.65 µM; in test [10] it was 2.09 µM. Besides, the TGI in [1] was found to be 4.98 µM; in test [2], 3.93 µM; in test [3], 40.6 µM; in [4], 24.4 µM; in test [5] it was 4.57 µM; in test [6], 18 µM. The TGI was 9.8 µM in test [7], over 100 µM in test [8], 3.96 µM in [9] and 3.74 µM in test [10].
Regarding `CSc1ccc(/C=C2\C=C(CC(=O)NCc3ccc(C(=O)c4ccccc4)cc3)c3cc(F)ccc32)cc1`, the GI50 was 0.0741 µM in test [1]; 0.0449 µM in [2]; 0.036 µM in test [3]; 0.0618 µM in [4]; 0.035 µM in test [5]; 0.059 µM in test [6]. Further, the GI50 was 0.0433 µM in test [7], 0.0431 µM in test [8], 0.572 µM in test [9] and 0.0591 µM in [10]. Also, the TGI in [1] was found to be 8.23 µM; in test [2], 4.16 µM; in test [3] it was 2.89 µM; in [4], 24.9 µM; in test [5] it was 0.365 µM; in test [6], 23 µM. For the same molecule, the TGI in [7] was 6.25 µM; in [8] it was over 100 µM; in test [9] it was over 100 µM; in [10], 10.7 µM.
With `Cc1nc(C(N)=S)sc1C(=O)C/C(=N/N)C(=O)Nc1cccc(Cl)c1C`, the TGI in test [1], in test [2], in test [3], in test [4], in [5] and in test [6] was over 100 µM each time. Also, the TGI in [7], in [8], in test [9] and in test [10] was over 100 µM throughout.
For `CCC(c1cccc(O)c1)C(CC)c1cccc(O)c1` (stereo not given), the GI50 in test [1] is 11.9 µM; in [2], 2.93 µM; in test [3] it was 4.08 µM; in test [4] it was 12 µM; in test [5], 1.41 µM; in test [6], 5.46 µM. Also, the GI50 in [7] was 0.973 µM; in [8], 4.44 µM; in test [9], 11.5 µM; in [10] it was 3.67 µM. Besides, the TGI was 33 µM in [1]; 13.2 µM in test [2]; 16.6 µM in [3]; 24.3 µM in test [4]; 3.91 µM in test [5]; 19.4 µM in test [6]. Moreover, the TGI worked out at 11.7 µM in test [7], 16.4 µM in test [8], 26.4 µM in [9] and 16 µM in test [10].
As for `O=Cc1ccc(-c2cccs2)s1`, the TGI in [1] is 49.7 µM; in test [2] it was over 100 µM; in test [3], over 68.1 µM; in [4], 69.7 µM; in test [5], over 88.9 µM; in [6], over 100 µM. The TGI in [7] is over 100 µM; in test [8] it was over 100 µM; in test [9], 15.1 µM; in [10] it was 4.42 µM.
Consider `COc1cc(Cn2c(-c3nonc3N)nc3ccccc32)ccc1C`, for which the GI50 in test [1] was 0.477 µM; in test [2], 0.426 µM; in test [3] it was 1.02 µM; in test [4] it was 1.59 µM; in test [5] it was 0.354 µM; in test [6], 3.69 µM. Further, the GI50 in test [7] is 0.248 µM; in test [8], 0.334 µM; in test [9] it was 0.419 µM; in test [10], 0.848 µM. The TGI in [1] is over 100 µM; in [2] it was 34.8 µM; in test [3] it was over 55.6 µM; in [4] it was 43.5 µM; in test [5] it was 19.8 µM; in [6], over 100 µM. The TGI in test [7] was 1.13 µM; in test [8] it was over 100 µM; in test [9], over 100 µM; in test [10] it was over 100 µM.
As for `O=[N+]([O-])c1ccc2c(c1)[O][Sn]([I])([I])[O]2`, the GI50 in test [1] is over 100 µM; in test [2], over 100 µM; in test [3], 60 µM; in test [4], over 100 µM; in test [5], over 100 µM; in [6], over 100 µM. The GI50 was over 100 µM in [7], over 100 µM in [8], over 100 µM in test [9] and 52 µM in test [10]. Also, the TGI in test [1], in [2], in [3], in test [4], in [5] and in test [6] was over 100 µM in each case. In addition, the TGI in [7], in [8], in test [9] and in test [10] was over 100 µM in each case.
As for `Cn1cc(CNCC2CCN(c3ncc(C(=O)NO)cn3)CC2)c2ccccc21`, the GI50 was 0.0233 µM in test [1]; 0.0114 µM in test [2]; 0.0218 µM in test [3]; under 0.01 µM in test [4]; under 0.0108 µM in test [5]; 0.0344 µM in test [6]. The GI50 was under 0.0108 µM in test [7], 0.0147 µM in test [8], 0.0119 µM in [9] and 0.0118 µM in test [10]. Further, the TGI was 0.169 µM in test [1]; 1.25 µM in test [2]; 0.436 µM in [3]; 0.598 µM in test [4]; 0.0307 µM in test [5]; 15.7 µM in test [6]. Further, the TGI came to 8.62 µM in test [7], 2.11 µM in [8], 0.363 µM in test [9] and 0.0415 µM in [10].
Turning to `CCOC(=O)[C@H]1Nc2ccc(OC)cc2C2c3ccccc3CC21` (stereo not given in full), the TGI in test [1], in test [2], in [3], in test [4], in [5] and in test [6] was over 100 µM throughout. In addition, the TGI in [7], in [8], in test [9] and in test [10] was over 100 µM each time.
As to `CCN(CC)c1ccc2c(c1)Nc1cc(=C(C#N)C#N)c3ccccc3c1=N2`, the TGI in [1], in test [2], in test [3], in test [4], in test [5] and in [6] was over 100 µM each time. Besides, the TGI in test [7], in test [8], in test [9] and in test [10] was over 100 µM throughout.
With `Cc1cc(-c2nnc3n2CCCCC3)c(C)n1-c1ccc(Cl)c(Cl)c1`, the GI50 is 22.3 µM in test [1]; 14.9 µM in test [2]; 12.3 µM in test [3]; 39 µM in [4]; 2.18 µM in test [5]; 14.7 µM in test [6]. Also, the GI50 in test [7] was 13.4 µM; in [8], 17.5 µM; in test [9], 12.7 µM; in test [10], 4.03 µM. Also, the TGI is over 100 µM in test [1]; 33.5 µM in test [2]; 35.2 µM in test [3]; over 100 µM in test [4]; 6.08 µM in [5]; 40.1 µM in test [6]. Further, the TGI in [7] stood at 27.7 µM; in test [8], 50.9 µM; in test [9], 32.3 µM; in [10], 17 µM.
As to `OCC1OC(n2cnc3c(/C=C(/O)c4ccccc4)ncnc32)C(O)C1O` (stereo not given), the TGI in test [1] was over 100 µM; in test [2] it was over 100 µM; in test [3], over 100 µM; in test [4], over 100 µM; in [5], 79.7 µM; in [6], over 100 µM. The TGI in test [7] is over 25.1 µM; in [8], over 100 µM; in test [9] it was over 62.9 µM; in test [10], over 100 µM.
